For three compounds, IC50 results are on record in patent publication US7691867B2, “Chemical compounds” (AstraZeneca AB, priority 2003, dated 2010).

In one experiment the test system is SW620 cells. In words: In vitro cell cycle analysis assay. The following applies: Homo sapiens, SW-620, 24 hours with compound, DNA content by FACS, read-out: 50% inhibition of enzyme activity at a concentration of. The class given is cell-based. How it is done: (d) In Vitro Cell Cycle Analysis Assay
This assay determines the ability of a test compound to arrest cells in specific phases of the cell cycle. Many different mammalian cell lines could be used in this assay and SW620 cells are included here as an example. SW620 cells were seeded at 7×10^5 cells per T25 flask (Costar) in 5 ml L-15 (5% FCS, 1% L-glutamine). Flasks were then incubated overnight in a humidified 37° C. incubator with 5% CO2. The following day, 5 μl of L-15 (5% FCS, 1% L-glutamine) carrying the appropriate concentration of test compound solubilised in DMSO was added to the flask. A no compound control treatment was also included (0.5% DMSO). The cells were then incubated for a defined time (24 hours) with compound. After this time the media was aspirated from the cells and they were washed with 5 ml of prewarmed (37° C.) sterile PBSA, then detached from the flask by brief incubation with trypsin and followed by resuspension in 5 ml of 1% Bovine Serum Albumin (BSA, Sigma-Aldrich Co.) in sterile PBSA. The samples were then centrifuged at 2200 rpm for 10 min. The supernatant was aspirated to leave 200 μl of the PBS/BSA solution. The pellet was resuspended in this 200 μl of solution by pipetting 10 times to create a single cell suspension. One ml of ice-cold 80% ethanol was slowly added to each cell suspension and the samples stored at −20° C. overnight or until required for staining. […]
Each sample was then syringed 10 times using 21-guage needle. The samples were then transferred to LPS tubes and DNA content per cell analysed by Fluorescence activated cell sorting (FACS) using a FACScan flow cytometer (Becton Dickinson). Typically 30,000 events were counted and recorded using CellQuest v1.1 software (Verity Software). Cell cycle distribution of the population was calculated using Modfit software (Verity Software) and expressed as percentage of cells with 2N (G0/G1), 2N4N (S phase) and with 4N (G2/M) DNA content.

For a further experiment, the target named is T1, Aurora-A kinase (Homo sapiens, UniProt O14965).
T1 sequence (O14965 1-403): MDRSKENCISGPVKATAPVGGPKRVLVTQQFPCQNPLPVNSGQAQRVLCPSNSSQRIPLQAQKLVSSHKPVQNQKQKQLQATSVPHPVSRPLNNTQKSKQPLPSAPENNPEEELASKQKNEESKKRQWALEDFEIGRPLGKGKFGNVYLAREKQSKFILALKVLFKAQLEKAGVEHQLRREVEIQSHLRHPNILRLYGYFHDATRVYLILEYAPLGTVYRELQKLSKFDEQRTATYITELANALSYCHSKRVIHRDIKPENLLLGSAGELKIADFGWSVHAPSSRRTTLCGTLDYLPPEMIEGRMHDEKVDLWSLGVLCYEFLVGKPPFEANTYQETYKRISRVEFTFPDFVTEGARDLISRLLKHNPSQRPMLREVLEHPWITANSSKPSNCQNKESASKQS
The experiment is described as follows: In vitro Aurora-A kinase inhibition test. The format is biochemical.

For a further experiment, the target named is Aurora-B kinase (Homo sapiens, UniProt Q96GD4). The experiment is described as follows: In vitro Aurora-B kinase inhibition test. The class given is biochemical. The following applies: recombinant Aurora-B, peptide substrate, [γ33P]ATP, 60 minutes at room temperature; read-out: 50% inhibition of enzyme activity at a concentration of. How it is done: (b) In Vitro Aurora-B Kinase Inhibition Test
This assay determines the ability of a test compound to inhibit serine-threonine kinase activity. DNA encoding Aurora-B may be obtained by total gene synthesis or by cloning. This DNA may then be expressed in a suitable expression system to obtain polypeptide with serine-threonine kinase activity.
For the large scale expression of Aurora-B kinase activity, Sf21 insect cells were grown at 28° C. in TC100 medium supplemented with 10% foetal calf serum (Viralex) and 0.2% F68 Pluronic (Sigma) on a Wheaton roller rig at 3 r.p.m. When the cell density reached 1.2×10^6 cells ml^−1 they were infected with plaque-pure Aurora-B recombinant virus at a multiplicity of infection of 1 and harvested 48 hours later. All subsequent purification steps were performed at 4° C. Frozen insect cell pellets containing a total of 2.0×10^8 cells were thawed and diluted with lysis buffer (50 mM HEPES (N-[2-hydroxyethyl]piperazine-N′-[2-ethanesulphonic acid]) pH 7.5 at 4° C., 1 mM Na3VO4, 1 mM PMSF (phenylmethylsulphonyl fluoride), 1 mM dithiothreitol, 1 μg/ml aprotinin, 1 μg/ml pepstatin, 1 μg/ml leupeptin), using 1.0 ml per 2×10^7 cells. Lysis was achieved using a sonication homogeniser, following which the lysate was centrifuged at 41,000 g for 35 minutes. Aspirated supernatant was pumped onto a 5 mm diameter chromatography column containing 1.0 ml CM sepharose Fast Flow (Amersham Pharmacia Biotech) which had been equilibrated in lysis buffer. A baseline level of UV absorbance for the eluent was reached after washing the column with 12 ml of lysis buffer followed by 7 ml of wash buffer (50 mM HEPES pH 7.4 at 4° C., 1 mM dithiothreitol). Bound Aurora-B B protein was eluted from the column using a gradient of elution buffer (50 mM HEPES pH 7.4 at 4° C., 0.6 M NaCl, 1 mM dithiothreitol, running from 0% elution buffer to 100% elution buffer over 15 minutes at a flowrate of 0.5 ml/min). Elution fractions (1.0 ml) corresponding to the peak in UV absorbance was collected. […]

For experiment [1], the system named is human tumour cell line SW620. The experiment is described as follows: In vitro cell proliferation assay (BrdU incorporation). The format is cell-based. The conditions noted are these: SW-620, SW620 cells, 48 hours with compound, BrdU incorporation over 2 hour labelling period, read-out: 50% inhibition of enzyme activity at a concentration of. The text has this:
(c) In Vitro cell Proliferation Assay
This and other assays can be used to determine the ability of a test compound to inhibit the growth of adherent mammalian cell lines, for example the human tumour cell line SW620 (ATCC CCL-227). This assay determines the ability of at test compound to inhibit the incorporation of the thymidine analogue, 5′-bromo-2′-deoxy-uridine (BrdU) into cellular DNA. SW620 or other adherent cells were typically seeded at 1×10^5 cells per well in L-15 media (GIBCO) plus 5% foetal calf serum, 1% L-glutamine (100 μl /well) in 96 well tissue culture treated 96 well plates (Costar) and allowed to adhere overnight. The following day the cells were dosed with compound (diluted from 10 mM stock in DMSO using L-15 (with 5% FCS, 1% L-glutamine). Untreated control wells and wells containing a compound known to give 100% inhibition of BrdU incorporation were included on each plate. After 48 hours in the presence/absence of test compound the ability of the cells to incorporate BrdU over a 2 hour labelling period was determined using a Boehringer (Roche) Cell Proliferation BrdU EUSA kit (cat. No. 1 647 229) according to manufacturers directions. Briefly, 15 μl of BrdU labelling reagent (diluted 1:100 in media—L-15, 5% FCS, 1% L-glutamine) was added to each well and the plate returned to a humidified (+5% CO2) 37° C. incubator for 2 hours. After 2 hours the labelling reagent was removed by decanting and tapping the plate on a paper towel. FixDenat solution (50 μl per well) was added and the plates incubated at room temperature for 45 mins with shaking. The FixDenat solution was removed by decanting and tapping the inverted plate on a paper towel. The plate was then washed once with phosphate buffered saline (PBS) and 100 μl/well of Anti-BrdU-POD antibody solution (diluted 1:100 in antibody dilution buffer) added. The plate was then incubated at room temperature with shaking for 90 min. […] The optical density of the wells was then determined at 690 nm wavelength using a Titertek Multiscan plate reader. […]

Aurora-B kinase, sequence (Q96GD4 whole entry): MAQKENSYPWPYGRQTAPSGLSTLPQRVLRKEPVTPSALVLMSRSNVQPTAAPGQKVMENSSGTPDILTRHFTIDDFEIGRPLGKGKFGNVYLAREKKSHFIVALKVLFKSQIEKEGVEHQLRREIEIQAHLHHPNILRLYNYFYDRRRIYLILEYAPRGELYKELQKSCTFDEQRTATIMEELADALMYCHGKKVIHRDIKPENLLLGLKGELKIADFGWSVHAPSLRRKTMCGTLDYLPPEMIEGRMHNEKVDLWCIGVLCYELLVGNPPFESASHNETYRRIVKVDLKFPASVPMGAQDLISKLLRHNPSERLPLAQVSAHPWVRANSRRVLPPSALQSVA

Take `CCN(CCO)CCCOc1ccc2c(Nc3cnn(CC(=O)Nc4cccc(F)c4)c3)ncnc2c1` [Compound 187, 2-{4-[(7-{3-[ethyl(2-hydroxyethyl)amino]propoxy}quinazolin-4-yl)amino]-1H-pyrazol-1-yl}-N-(3-fluorophenyl)acetamide]: the IC50 is 21 nM in the experiment with SW620 cells, 500 nM at Aurora-A kinase, 9 nM at Aurora-B kinase and 1 nM in experiment [1].
For `COc1cc2c(Nc3cnn(CC(=O)Nc4cccc(F)c4F)c3)ncnc2cc1OCCCN(CCO)CC(C)C` [Compound 60, N-(2,3-difluorophenyl)-2-{4-[(7-{3-[(2-hydroxyethyl)(isobutyl)amino]propoxy}-6-methoxyquinazolin-4-yl)amino]-1H-pyrazol-1-yl}acetamide], the IC50 in the experiment with SW620 cells was 3 nM; at Aurora-A kinase it was 10 nM; on Aurora-B kinase, 8 nM; in experiment [1] it was 1 nM.
For `COc1cc2c(Nc3cnn(CC(=O)Nc4cccc(F)c4)c3)ncnc2cc1OCCCN1CCC[C@@H]1CO` [Compound 27, N-(3-fluorophenyl)-2-{4-[(7-{3-[(2R)-2-(hydroxymethyl)pyrrolidin-1-yl]propoxy}-6-methoxyquinazolin-4-yl)amino]-1H-pyrazol-1-yl}acetamide] the same measures were 7 nM, 34 nM, 5 nM and 10 nM.
